Source: patent publication US11447503B2, “Pyridine carbamates and their use as GLUN2B receptor modulators” (JANSSEN PHARMACEUTICA NV, priority 2019, dated 2022)
Structures can show the parent of a compound that is named as a salt.

target: human GluN1/GluN2B NMDA receptors (Homo sapiens, UniProt Q05586+Q13224); assay: Cell-based calcium flux (FLIPR) assay on cloned human GluN1/GluN2B ion channels expressed in mammalian cells; settings: standard assay; glutamate ~EC40, 10 μM glycine; stable Tet-On cell line
Sequence (Q13224 27-1484, other chains not shown): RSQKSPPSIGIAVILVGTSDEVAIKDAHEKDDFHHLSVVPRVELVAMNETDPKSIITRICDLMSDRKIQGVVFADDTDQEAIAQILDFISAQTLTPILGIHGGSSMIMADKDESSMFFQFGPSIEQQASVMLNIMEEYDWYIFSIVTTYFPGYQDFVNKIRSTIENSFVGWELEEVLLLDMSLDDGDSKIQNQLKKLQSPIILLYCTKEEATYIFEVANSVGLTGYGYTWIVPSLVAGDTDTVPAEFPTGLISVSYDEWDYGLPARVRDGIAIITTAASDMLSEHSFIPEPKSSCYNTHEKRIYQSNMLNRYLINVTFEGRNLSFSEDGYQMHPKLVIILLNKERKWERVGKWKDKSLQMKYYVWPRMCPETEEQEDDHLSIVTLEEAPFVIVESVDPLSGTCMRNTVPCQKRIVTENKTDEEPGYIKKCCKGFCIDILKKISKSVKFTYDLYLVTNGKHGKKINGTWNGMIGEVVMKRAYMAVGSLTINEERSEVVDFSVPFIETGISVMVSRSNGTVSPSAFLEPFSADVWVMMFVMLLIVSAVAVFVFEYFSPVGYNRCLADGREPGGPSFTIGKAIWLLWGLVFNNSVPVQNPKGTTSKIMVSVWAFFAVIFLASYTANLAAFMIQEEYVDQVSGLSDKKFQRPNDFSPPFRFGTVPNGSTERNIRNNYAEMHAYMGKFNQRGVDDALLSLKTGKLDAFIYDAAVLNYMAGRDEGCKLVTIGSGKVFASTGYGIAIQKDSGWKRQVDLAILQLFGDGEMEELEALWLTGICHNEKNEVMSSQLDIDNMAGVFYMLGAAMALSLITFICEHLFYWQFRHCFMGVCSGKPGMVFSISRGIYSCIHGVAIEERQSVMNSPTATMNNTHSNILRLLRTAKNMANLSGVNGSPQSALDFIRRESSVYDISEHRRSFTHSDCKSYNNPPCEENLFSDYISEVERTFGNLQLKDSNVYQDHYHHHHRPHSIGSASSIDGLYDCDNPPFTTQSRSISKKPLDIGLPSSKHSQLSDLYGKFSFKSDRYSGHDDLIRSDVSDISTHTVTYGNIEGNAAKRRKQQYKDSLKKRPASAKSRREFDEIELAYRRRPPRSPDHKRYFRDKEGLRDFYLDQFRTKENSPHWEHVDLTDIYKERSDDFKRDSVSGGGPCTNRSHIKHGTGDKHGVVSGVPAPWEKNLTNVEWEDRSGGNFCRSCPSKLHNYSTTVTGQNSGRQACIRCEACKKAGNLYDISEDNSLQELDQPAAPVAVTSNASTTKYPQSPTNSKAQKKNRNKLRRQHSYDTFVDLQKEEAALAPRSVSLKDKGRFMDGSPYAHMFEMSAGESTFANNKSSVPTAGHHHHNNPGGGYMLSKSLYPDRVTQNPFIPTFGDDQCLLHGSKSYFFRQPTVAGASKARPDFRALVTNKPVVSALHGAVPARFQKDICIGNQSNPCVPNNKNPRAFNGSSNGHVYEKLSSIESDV
Description: 5.3. Biological Assays: Effect of Compounds of Formula (I) on Cloned Human GluN1/GluN2B Ion Channels Expressed in Mammalian Cells
NMDA receptors are ion channels that are highly permeable to Ca^2+ ions, rendering it possible to monitor NMDA receptor function using cell-based calcium flux assay. In this assay, co-agonists glutamate and glycine are added to cells heterologously expressing human GluN1/GluN2B NMDA receptors to initiate cellular Ca^2+ influx. The time course of the changes in intracellular calcium is measured using a fluorescent dye and a FLIPR (Fluorometric Imaging Plate Reader) device.
Twenty four hours before measurements, the expression of the NMDA receptors in the stable cell line is induced with Tet-On inducible system in the presence of a non-selective NMDA receptor blocker. On the day of the experiment, cell culture media is carefully washed and the cells are loaded with Calcium 5 Dye Kit (Molecular Devices) in dye loading buffer containing 137 mM NaCl, 4 mM KCl, 2 mM CaCl2, 0.5 mM MgCl2 (standard assay) or 1.5 mM MgCl2 (HTS assay), 10 mM HEPES and 5 mM D-glucose; pH 7.4. After 1 h incubation at the room temperature, the dye is washed away with the assay buffer (137 mM NaCl (standard assay) or 150 mM (HTS assay), 4 mM KCl (standard assay) or 3 mM (HTS assay), 2 mM CaCl2, 0.01 mM EDTA, 10 mM HEPES and 5 mM D-glucose; pH 7.4) In the FLIPR TETRA reader, various concentrations of the test compounds are added to the cells for 5 min while fluorescence is monitored to detect potential agonist activity. Next, co-agonists, glutamate and glycine are added for another 5 minutes. The concentration of glutamate corresponding to ˜EC40 (standard assay) or EC40 (HTS assay) is used to maximize the assay's signal window and ability to detect NMDA receptor antagonists and negative allosteric modulators. A saturating concentration (10 μM) of glycine is also present in the assay. A non-selective NMDA receptor antagonist, (+)MK-801 is used as a positive control for antagonist activity. The fluorescent signal in the presence of test compounds is quantified and normalized to the signal defined by the appropriate control wells.

First: CC(C)[C@@H]1COC(=O)N1Cc1cncc(-c2ccc(F)c(OC(F)F)c2)c1 [Example 11, (4R)-3-[[5-[3-(Difluoromethoxy)-4-fluoro-phenyl]-3-pyridyl]methyl]-4-isopropyl-oxazolidin-2-one]
Second: CC(C)[C@H]1COC(=O)N1Cc1cncc(-c2ccc(F)c(C(F)F)c2)c1 [Example 23, (4S)-3-[[5-[3-(Difluoromethyl)-4-fluoro-phenyl]-3-pyridyl]methyl]-4-isopropyl-oxazolidin-2-one]
The IC50 of the first is higher: over 3000 nM for the first, 2600 nM for the second. The second is the more potent here.

First: O=C1OC2(CCC2)CN1Cc1cncc(-c2ccc(F)c(OC(F)F)c2)c1 [Example 12, 6-[[5-[3-(Difluoromethoxy)-4-fluoro-phenyl]-3-pyridyl]methyl]-8-oxa-6-azaspiro[3.4]octan-7-one]
Second: O=C1OC2(CCOCC2)CN1Cc1cncc(-c2ccc(F)c(OC(F)F)c2)c1 [Example 20, 2-[[5-[3-(Difluoromethoxy)-4-fluoro-phenyl]-3-pyridyl]methyl]-4,8-dioxa-2-azaspiro[4.5]decan-3-one]
The IC50 of the first is 4.5-fold lower: 59 nM for the first, 267 nM for the second. The first is the more potent here.

First: O=C1OC2(COC2)CN1Cc1cncc(-c2ccc(F)c(OC(F)F)c2)c1 [Example 13, 6-[[5-[3-(Difluoromethoxy)-4-fluoro-phenyl]-3-pyridyl]methyl]-2,8-dioxa-6-azaspiro[3.4]octan-7-one]
Second: O=C1OC2(CNC2)CN1Cc1cncc(-c2ccc(F)c(OC(F)F)c2)c1 [Example 43, 6-[[5-[3-(Difluoromethoxy)-4-fluoro-phenyl]-3-pyridyl]methyl]-8-oxa-2,6-diazaspiro[3.4]octan-7-one Trifluoroacetate Salt]
The IC50 of the first is 67-fold lower: 39 nM for the first, 2620 nM for the second. The first is the more potent here.

First: O=C1OC2(CNC2)CN1Cc1cncc(-c2ccc(F)c(C(F)F)c2)c1 [Example 21, 6-[[5-[3-(Difluoromethyl)-4-fluoro-phenyl]-3-pyridyl]methyl]-8-oxa-2,6-diazaspiro[3.4]octan-7-one Trifluoroacetate Salt]
Second: O=C1OC2(CC2)CN1Cc1cncc(-c2ccc(F)c(C(F)F)c2)c1 [Example 29, 5-[[5-[3-(Difluoromethyl)-4-fluoro-phenyl]-3-pyridyl]methyl]-7-oxa-5-azaspiro[2.4]heptan-6-one]
The IC50 of the first is 67-fold higher: 806 nM for the first, 12 nM for the second. The second is the more potent here.

First: O=C1OCc2ccccc2N1Cc1cncc(-c2ccc(F)c(C(F)F)c2)c1 [Example 24, 1-[[5-[3-(Difluoromethyl)-4-fluoro-phenyl]-3-pyridyl]methyl]-4H-3,1-benzoxazin-2-one]
Second: C[C@@H]1CN(Cc2cncc(-c3ccc(F)c(C(F)F)c3)c2)C(=O)O1 [Example 33, (5R)-3-[[5-[3-(Difluoromethyl)-4-fluoro-phenyl]-3-pyridyl]methyl]-5-methyl-oxazolidin-2-one]
The IC50 of the first is 4.6-fold higher: 73 nM for the first, 16 nM for the second.

Going from `CC1(C)CCN(Cc2cncc(-c3ccc(F)c(C(F)F)c3)c2)C(=O)O1` [Example 30, 3-[[5-[3-(Difluoromethyl)-4-fluoro-phenyl]-3-pyridyl]methyl]-6,6-dimethyl-1,3-oxazinan-2-one] to `O=C1OC2(CCC2)CN1Cc1cncc(-c2ccc(F)c(C(F)F)c2)c1` [Example 32, 6-[[5-[3-(Difluoromethyl)-4-fluoro-phenyl]-3-pyridyl]methyl]-8-oxa-6-azaspiro[3.4]octan-7-one], the IC50 falls from 603 nM to 26 nM (23-fold).

Compared with `CC(C)[C@@H]1COC(=O)N1Cc1cncc(-c2ccc(F)c(C(F)F)c2)c1` [Example 31, (4R)-3-[[5-[3-(Difluoromethyl)-4-fluoro-phenyl]-3-pyridyl]methyl]-4-isopropyl-oxazolidin-2-one], `O=C1OC2(COC2)CN1Cc1cncc(-c2ccc(F)c(C(F)F)c2)c1` [Example 34, 6-[[5-[3-(Difluoromethyl)-4-fluoro-phenyl]-3-pyridyl]methyl]-2,8-dioxa-6-azaspiro[3.4]octan-7-one] is lower in IC50: over 3000 nM for the first, 30 nM for the second.

First: O=C1OC2(CCOCC2)CN1Cc1cncc(-c2ccc(F)c(C(F)F)c2)c1 [Example 42, 2-[[5-[3-(Difluoromethyl)-4-fluoro-phenyl]-3-pyridyl]methyl]-4,8-dioxa-2-azaspiro[4.5]decan-3-one]
Second: Cc1cc(-c2cncc(CN3CCOC3=O)c2)ccc1F [Example 44, 3-[[5-(4-Fluoro-3-methyl-phenyl)-3-pyridyl]methyl]oxazolidin-2-one]
The IC50 of the first is 9-fold higher: 108 nM for the first, 12 nM for the second.

First: Cc1c(F)ccc(-c2cncc(CN3CCOC3=O)c2)c1F [Example 45, 3-[[5-(2,4-Difluoro-3-methyl-phenyl)-3-pyridyl]methyl]oxazolidin-2-one]
Second: CC(F)(F)c1cc(-c2cncc(CN3CCOC3=O)c2)ccc1F [Example 49, 3-[[5-[3-(1,1-Difluoroethyl)-4-fluoro-phenyl]-3-pyridyl]methyl]oxazolidin-2-one]
The IC50 of the first is 3.3-fold lower: 9 nM for the first, 30 nM for the second.

Compared with `O=C1OCCN1Cc1cncc(-c2cccc(C(F)(F)F)c2)c1` [Example 46, 3-[[5-[3-(Trifluoromethyl)phenyl]-3-pyridyl]methyl]oxazolidin-2-one], `O=C1OCCN1Cc1cncc(-c2ccnc(C(F)(F)F)c2)c1` [Example 51, 3-[[5-[2-(Trifluoromethyl)-4-pyridyl]-3-pyridyl]methyl]oxazoidin-2-one] is 38-fold higher in IC50: 26 nM for the first, 1000 nM for the second.

`O=C1OCCN1Cc1cncc(-c2ccc(Cl)c(OC(F)F)c2)c1` [Example 47, 3-[[5-[4-Chloro-3-(difluoromethoxy)phenyl]-3-pyridyl]methyl]oxazolidin-2-one] and `[2H]C([2H])(c1cncc(-c2ccc(F)c(OC(F)F)c2)c1)N1CCCOC1=O` [Example 55, 3-[Dideuterio-[5-[3-(difluoromethoxy)-4-fluoro-phenyl]-3-pyridyl]methyl]-1,3-oxazinan-2-one] are within 1.5-fold of each other in IC50: 11 nM for the first, 12 nM for the second.

Going from `O=C1OCCN1Cc1cncc(-c2ccc(OC(F)(F)F)c(F)c2)c1` [Example 48, 3-[[5-[3-Fluoro-4-(trifluoromethoxy)phenyl]-3-pyridyl]methyl]oxazolidin-2-one] to `O=C1OCCCN1Cc1cncc(-c2ccc(F)c(C(F)(F)F)c2)c1` [Example 52, 3-[[5-[4-Fluoro-3-(trifluoromethyl)phenyl]-3-pyridyl]methyl]-1,3-oxazinan-2-one], the IC50 falls from 912 nM to 27 nM (34-fold).

Going from `O=C1OCCN1Cc1cncc(-c2cccc(C(F)(F)F)n2)c1` [Example 50, 3-[[5-[6-(Trifluoromethyl)-2-pyridyl]-3-pyridyl]methyl]oxazolidin-2-one] to `Cc1ncc(-c2cccc(C(F)F)c2)cc1CN1CCCOC1=O` [Example 62, 3-[[5-[3-(Difluoromethyl)phenyl]-2-methyl-3-pyridyl]methyl]-1,3-oxazinan-2-one], the IC50 falls from 786 nM to 128 nM (6.1-fold).

First: [2H]C([2H])(c1cc(-c2ccc(F)c(OC(F)F)c2)cnc1C)N1CCCOC1=O [Example 56, 3-[Dideuterio-[5-[3-(difluoromethoxy)-4-fluoro-phenyl]-2-methyl-3-pyridyl]methyl]-1,3-oxazinan-2-one]
Second: [2H]C([2H])(c1cc(-c2ccc(F)c(C(F)F)c2)cnc1C)N1CCCOC1=O [Example 58, 3-[Dideuterio-[5-[3-(difluoromethyl)-4-fluoro-phenyl]-2-methyl-3-pyridyl]methyl]-1,3-oxazinan-2-one]
The IC50 of the first is 2.8-fold lower: 9 nM for the first, 25 nM for the second.

`[2H]C([2H])(c1cc(-c2ccc(F)c(C)c2)cnc1C)N1CCCOC1=O` [Example 57, 3-[Dideuterio-[5-(4-fluoro-3-methyl-phenyl)-2-methyl-3-pyridyl]methyl]-1,3-oxazinan-2-one] and `Cc1cc(-c2cnc(C)c(CN3CCCOC3=O)c2)ccc1F` [Example 66, 3-[[5-(4-Fluoro-3-methyl-phenyl)-2-methyl-3-pyridyl]methyl]-1,3-oxazinan-2-one] are the same in IC50: 23 nM for the first, 23 nM for the second.

First: [2H]C([2H])(c1cc(-c2ccc(F)c(C(F)F)c2)cnc1C)N1CCOC1=O [Example 59, 3-[Dideuterio-[5-[3-(difluoromethyl)-4-fluoro-phenyl]-2-methyl-3-pyridyl]methyl]oxazolidin-2-one]
Second: Cc1ncc(-c2ccc(F)c(F)c2)cc1CN1CCCOC1=O [Example 67, 3-[[5-(3,4-Difluorophenyl)-2-methyl-3-pyridyl]methyl]-1,3-oxazinan-2-one]
The IC50 of the first is 26-fold lower: 13 nM for the first, 344 nM for the second.

First: Cc1ncc(-c2cccc(OC(F)F)c2)cc1CN1CCCOC1=O [Example 63, 3-[[5-[3-(Difluoromethoxy)phenyl]-2-methyl-3-pyridyl]methyl]-1,3-oxazinan-2-one]
Second: Cc1ncc(-c2cccc(Cl)c2)cc1CN1CCCOC1=O [Example 64, 3-[[5-(3-Chlorophenyl)-2-methyl-3-pyridyl]methyl]-1,3-oxazinan-2-one]
The IC50 of the first is 2.3-fold lower: 174 nM for the first, 406 nM for the second. The first is the more potent here.

Work on `Cc1ncc(-c2ccc(F)c(Cl)c2)cc1CN1CCCOC1=O` [Example 65, 3-[[5-(3-Chloro-4-fluoro-phenyl)-2-methyl-3-pyridyl]methyl]-1,3-oxazinan-2-one] yielded an IC50 of 30 nM.
